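GI50 = concentration required for 50% inhibition of growth. TGI marks complete inhibition of growth.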
Experiments:
Experiment in all cases: NCI anticancer screen, dose series, 384-well format
CAKI-1 renal = tested on: CAKI-1 renal
SK-MEL-5 melanoma = tested on: SK-MEL-5 melanoma
UO-31 renal = tested on: UO-31 renal
A498 renal = tested on: A498 renal
MDA-MB-435 melanoma = tested on: MDA-MB-435 melanoma
UACC-62 melanoma = tested on: UACC-62 melanoma
HL-60(TB) leukemia = tested on: HL-60(TB) leukemia
NCI-H522 lung = tested on: NCI-H522 lung
U251 glioblastoma = tested on: U251 glioblastoma
SF-268 CNS = tested on: SF-268 CNS
SF-539 CNS = tested on: SF-539 CNS
OVCAR-8 ovarian = tested on: OVCAR-8 ovarian
RPMI-8226 leukemia = tested on: RPMI-8226 leukemia
MALME-3M melanoma = tested on: MALME-3M melanoma
NCI/ADR-RES ovarian = tested on: NCI/ADR-RES ovarian
OVCAR-3 ovarian = tested on: OVCAR-3 ovarian
MOLT-4 leukemia = tested on: MOLT-4 leukemia
A549 NSCLC = tested on: A549 NSCLC
EKVX NSCLC = tested on: EKVX NSCLC
HOP-62 NSCLC = tested on: HOP-62 NSCLC
T-47D breast = tested on: T-47D breast
HS 578T breast = tested on: HS 578T breast
HCT-15 colon = tested on: HCT-15 colon
PC-3 prostate = tested on: PC-3 prostate
SK-MEL-28 melanoma = tested on: SK-MEL-28 melanoma
CCRF-CEM leukemia = tested on: CCRF-CEM leukemia
NCI-H322M lung = tested on: NCI-H322M lung
HT29 colon = tested on: HT29 colon
HOP-92 NSCLC = tested on: HOP-92 NSCLC

SMILES: COc1cc(N2CCC(N)CC2)ccc1Nc1ncc(Cl)c(-c2c[nH]c3ccccc23)n1
- TGI (CAKI-1 renal): 1070 nM
- GI50 (SK-MEL-5 melanoma): 610 nM
- TGI (SK-MEL-5 melanoma): 2040 nM
- GI50 (UO-31 renal): 655 nM
- TGI (UO-31 renal): 1950 nM
- GI50 (A498 renal): 296 nM
- TGI (A498 renal): 1330 nM
- GI50 (MDA-MB-435 melanoma): 395 nM
- TGI (MDA-MB-435 melanoma): 1790 nM
- GI50 (UACC-62 melanoma): 385 nM
- TGI (UACC-62 melanoma): 1770 nM
- GI50 (HL-60(TB) leukemia): 21.4 nM
- TGI (HL-60(TB) leukemia): 424 nM
- GI50 (NCI-H522 lung): 221 nM
- TGI (NCI-H522 lung): 1230 nM
- GI50 (U251 glioblastoma): 1210 nM
- TGI (U251 glioblastoma): 2480 nM
- GI50 (SF-268 CNS): 1150 nM
- TGI (SF-268 CNS): 2400 nM
- GI50 (SF-539 CNS): 453 nM
- TGI (SF-539 CNS): 1820 nM
- GI50 (OVCAR-8 ovarian): 1170 nM
- TGI (OVCAR-8 ovarian): 2410 nM
- GI50 (RPMI-8226 leukemia): 476 nM
- TGI (RPMI-8226 leukemia): 1580 nM
- GI50 (MALME-3M melanoma): 172 nM
- TGI (MALME-3M melanoma): 1510 nM
- GI50 (NCI/ADR-RES ovarian): 1480 nM
- TGI (NCI/ADR-RES ovarian): 2810 nM
- GI50 (OVCAR-3 ovarian): 666 nM
- TGI (OVCAR-3 ovarian): 2040 nM
- GI50 (MOLT-4 leukemia): 437 nM
- TGI (MOLT-4 leukemia): 1640 nM
- GI50 (A549 NSCLC): 858 nM
- TGI (A549 NSCLC): 2120 nM
- GI50 (EKVX NSCLC): 215 nM
- TGI (EKVX NSCLC): 1470 nM
- GI50 (HOP-62 NSCLC): 1220 nM
- TGI (HOP-62 NSCLC): 2490 nM
- GI50 (T-47D breast): 1180 nM
- TGI (T-47D breast): 2410 nM
- GI50 (HS 578T breast): 651 nM
- TGI (HS 578T breast): 1870 nM
- GI50 (HCT-15 colon): 265 nM
- TGI (HCT-15 colon): 1460 nM
- GI50 (PC-3 prostate): 1090 nM
- TGI (PC-3 prostate): 2330 nM
- GI50 (SK-MEL-28 melanoma): 1270 nM
- TGI (SK-MEL-28 melanoma): 2530 nM
- GI50 (CCRF-CEM leukemia): 886 nM
- TGI (CCRF-CEM leukemia): 2100 nM
- GI50 (NCI-H322M lung): 254 nM
- TGI (NCI-H322M lung): 1420 nM
- GI50 (HT29 colon): 55.9 nM
- TGI (HT29 colon): 1350 nM
- GI50 (HOP-92 NSCLC): 377 nM
- TGI (HOP-92 NSCLC): 1670 nM

— PubChem BioAssay (NCI)
